Where two headings read alike, the source gives them in different places.

Holding throughout (assay): Glasshouse assay for herbicidal activity (pre- and post-emergence), percentage phytotoxicity
Common to all, as to format: in vivo

Test [1] has as its system Alopecurus myosuroides (ALOMY). Particulars: Alopecurus myosuroides, Rate 250 g/ha, 100%=total damage, 0%=no damage. As to the method:
(§1) Test—Glasshouse Assay for Herbicidal Activity
(§2) Seeds of a variety of monocotyledonous and dicotyledonous test plants are sown in standard soil in pots. The plants are cultivated for one day (for pre-emergence (PRE)) or for about 12 days (for post-emergence (POST)) under controlled conditions in a glasshouse (warm climate species at 24/18° C., cool climate species at 20/16° C., both at day/night; 16 hours light; 65% humidity).
(§3) The test plants are then grown on, in a glasshouse (greenhouse) under controlled conditions (warm climate species at 24/18° C., cool climate species at 20/16° C., both at day/night; 16 hours light; 65% humidity) and are watered twice daily. 15 days after application of the test herbicide (15 DAA) (for post-emergence), and 20 days after application of the test herbicide (20 DAA) (for pre-emergence), the test plants are evaluated visually, and an assessed percentage phytotoxicity score is given for each herbicidal application on each plant species (with 100%=total damage to plant; 0%=no damage to plant).
(§4) The plant species tested are as follows: Alopecurus myosuroides (ALOMY), Avena fatua (AVEFA), Lolium perenne (LOLPE), Echinochloa crus-galli (ECHCG).

The subject of another test is Avena fatua (AVEFA). As to conditions: Avena fatua, Rate 250 g/ha, 100%=total damage, 0%=no damage. As to the method:
as §1, §2, §3, §4

In test [2] the test system is Echinochloa crus-galli (ECHCG). Particulars: Echinochloa crus-galli, Rate 250 g/ha, 100%=total damage, 0%=no damage. As to the method:
as §1, §2, §3, §4

The next test relates to Lolium perenne (LOLPE). As to conditions: Lolium perenne, Rate 250 g/ha, 100%=total damage, 0%=no damage. On the procedure:
as §1, §2, §3, §4

Where [3] appears, read: post-emergence, 360 h, post-emergence, assessed visually 15 DAA, read-out: Post-emergence herbicidal activity (percentage phytotoxicity) ALOMY POST.
The mark [4] stands for this setting: pre-emergence, 480 h, pre-emergence, assessed visually 20 DAA, read-out: Pre-emergence herbicidal activity (percentage phytotoxicity) ALOMY PRE.
The mark [5] stands for this setting: post-emergence, 360 h, post-emergence, assessed visually 15 DAA, read-out: Post-emergence herbicidal activity (percentage phytotoxicity) AVEFA POST.
The mark [6] stands for this setting: pre-emergence, 480 h, pre-emergence, assessed visually 20 DAA, read-out: Pre-emergence herbicidal activity (percentage phytotoxicity) AVEFA PRE.
Where [7] appears, read: post-emergence, 360 h, post-emergence, assessed visually 15 DAA, read-out: Post-emergence herbicidal activity (percentage phytotoxicity) ECHCG POST.
Setting [8] is: pre-emergence, 480 h, pre-emergence, assessed visually 20 DAA, read-out: Pre-emergence herbicidal activity (percentage phytotoxicity) ECHCG PRE.
Setting [9] is: post-emergence, 360 h, post-emergence, assessed visually 15 DAA, read-out: Post-emergence herbicidal activity (percentage phytotoxicity) LOLPE POST.
The mark [10] stands for this setting: pre-emergence, 480 h, pre-emergence, assessed visually 20 DAA, read-out: Pre-emergence herbicidal activity (percentage phytotoxicity) LOLPE PRE.

For the compound `Cc1cc(-c2ncc(Cl)cc2F)cc(C)c1C1C(=O)CC(CC(=O)NCc2ccc(Cl)nc2)C1=O` (stereo not shown) [Compound A116], the pest or weed control at 250 g/ha stood at 90% in test [1] (setting [3]); 80% in test [1] (setting [4]); 100% in the test with Avena fatua (AVEFA) (setting [5]); 90% in the test with Avena fatua (AVEFA) (setting [6]); 100% in test [2] (setting [7]); 100% in test [2] (setting [8]). Besides, the pest or weed control at 250 g/ha amounted to 100% with Lolium perenne (LOLPE) (setting [9]) and 80% in the test with Lolium perenne (LOLPE) (setting [10]).

As to `Cc1cc(-c2ncc(Cl)cc2F)cc(C)c1C1C(=O)CC(CC(=O)NCc2cccc(Cl)c2)C1=O` (stereo not shown) [Compound A117], the pest or weed control at 250 g/ha was determined as 90% in test [1] (setting [3]); 70% in test [1] (setting [4]); 100% with Avena fatua (AVEFA) (setting [5]); 70% in the test with Avena fatua (AVEFA) (setting [6]); 100% in test [2] (setting [7]); 100% in test [2] (setting [8]). Besides, the pest or weed control at 250 g/ha in the test on Lolium perenne (LOLPE) (setting [9]) was 100%; in the test with Lolium perenne (LOLPE) (setting [10]), 90%.

For the compound `Cc1cc(-c2ncc(Cl)cc2F)cc(C)c1C1C(=O)CC(CC(=O)NCc2ccccc2F)C1=O` (stereo not shown) [Compound A118], the pest or weed control at 250 g/ha in test [1] (setting [3]) was determined as 90%; in test [1] (setting [4]), 80%; with Avena fatua (AVEFA) (setting [5]) it was 100%; with Avena fatua (AVEFA) (setting [6]) it was 100%; in test [2] (setting [7]), 100%; in test [2] (setting [8]) it was 100%. Moreover, the pest or weed control at 250 g/ha in the test on Lolium perenne (LOLPE) (setting [9]) was found to be 100%; in the test with Lolium perenne (LOLPE) (setting [10]), 90%.

In the case of `Cc1cccc(CNC(=O)CC2CC(=O)C(c3c(C)cc(-c4ncc(Cl)cc4F)cc3C)C2=O)c1` (stereo not shown) [Compound A119], the pest or weed control at 250 g/ha in test [1] (setting [3]) was determined as 60%; in test [1] (setting [4]), 40%; in the test on Avena fatua (AVEFA) (setting [5]), 90%; in the test with Avena fatua (AVEFA) (setting [6]) it was 60%; in test [2] (setting [7]), 100%; in test [2] (setting [8]) it was 100%. Besides, the pest or weed control at 250 g/ha in the test with Lolium perenne (LOLPE) (setting [9]) was determined as 90%; in the test on Lolium perenne (LOLPE) (setting [10]) it was 70%.

Consider `Cc1cc(-c2ncc(Cl)cc2F)cc(C)c1C1C(=O)CC(CC(=O)NCc2cccc(C(F)(F)F)c2)C1=O` (stereo not shown) [Compound A120], for which the pest or weed control at 250 g/ha in test [1] (setting [3]) came out at 100%; in test [1] (setting [4]), 80%; in the test on Avena fatua (AVEFA) (setting [5]), 100%; in the test with Avena fatua (AVEFA) (setting [6]), 90%; in test [2] (setting [7]) it was 100%; in test [2] (setting [8]), 100%. Also, the pest or weed control at 250 g/ha with Lolium perenne (LOLPE) (setting [9]) is 100%; in the test on Lolium perenne (LOLPE) (setting [10]), 80%.

`Cc1cc(-c2ncc(Cl)cc2F)cc(C)c1C1C(=O)CC(CC(=O)NCc2ccc(OC(F)(F)F)cc2)C1=O` (stereo not shown) [Compound A121]: the pest or weed control at 250 g/ha in test [1] (setting [3]) was 100%; in test [1] (setting [4]), 90%; in the test with Avena fatua (AVEFA) (setting [5]), 100%; in the test on Avena fatua (AVEFA) (setting [6]), 90%; in test [2] (setting [7]), 100%; in test [2] (setting [8]), 90%. For the same compound, the results for the pest or weed control at 250 g/ha in the test with Lolium perenne (LOLPE) (setting [9]) and in the test on Lolium perenne (LOLPE) (setting [10]) were 100% and 80%, respectively.

`Cc1cc(-c2ncc(Cl)cc2F)cc(C)c1C1C(=O)CC(CC(=O)NCc2cccc([N+](=O)[O-])c2)C1=O` (stereo not shown) [Compound A122]: the pest or weed control at 250 g/ha amounted to 90% in test [1] (setting [3]); 70% in test [1] (setting [4]); 100% with Avena fatua (AVEFA) (setting [5]); 0% with Avena fatua (AVEFA) (setting [6]); 100% in test [2] (setting [7]); 90% in test [2] (setting [8]). Further, the pest or weed control at 250 g/ha with Lolium perenne (LOLPE) (setting [9]) was 70%; with Lolium perenne (LOLPE) (setting [10]), 20%.

On to `Cc1cnc(CNC(=O)CC2CC(=O)C(c3c(C)cc(-c4ncc(Cl)cc4F)cc3C)C2=O)s1` (stereo not shown) [Compound A123], for which the pest or weed control at 250 g/ha in test [1] (setting [3]) is 80%; in test [1] (setting [4]), 60%; in the test with Avena fatua (AVEFA) (setting [5]), 80%; in the test with Avena fatua (AVEFA) (setting [6]), 70%; in test [2] (setting [7]), 100%; in test [2] (setting [8]), 90%. Besides, the pest or weed control at 250 g/ha in the test with Lolium perenne (LOLPE) (setting [9]) was found to be 90%; with Lolium perenne (LOLPE) (setting [10]), 80%.

For `Cc1cc(-c2ncc(Cl)cc2F)cc(C)c1C1C(=O)CC(CC(=O)NC(C)c2ccc(F)cc2)C1=O` (stereo not shown) [Compound A124], the pest or weed control at 250 g/ha in test [1] (setting [3]) amounted to 90%; in test [1] (setting [4]), 70%; in the test with Avena fatua (AVEFA) (setting [5]), 100%; with Avena fatua (AVEFA) (setting [6]), 80%; in test [2] (setting [7]) it was 100%; in test [2] (setting [8]), 90%. Also, the pest or weed control at 250 g/ha in the test on Lolium perenne (LOLPE) (setting [9]) amounted to 100%; in the test with Lolium perenne (LOLPE) (setting [10]), 90%.

In the case of `Cc1cc(-c2ncc(Cl)cc2F)cc(C)c1C1C(=O)CC(CC(=O)NCc2cccs2)C1=O` (stereo not shown) [Compound A125], the pest or weed control at 250 g/ha in test [1] (setting [3]) turned out to be 90%; in test [1] (setting [4]), 70%; in the test on Avena fatua (AVEFA) (setting [5]), 100%; in the test on Avena fatua (AVEFA) (setting [6]), 80%; in test [2] (setting [7]), 100%; in test [2] (setting [8]), 100%. Further, the pest or weed control at 250 g/ha was 100% with Lolium perenne (LOLPE) (setting [9]) and 90% in the test with Lolium perenne (LOLPE) (setting [10]).

`COc1ccccc1CNC(=O)CC1CC(=O)C(c2c(C)cc(-c3ncc(Cl)cc3F)cc2C)C1=O` (stereo not shown) [Compound A126]: the pest or weed control at 250 g/ha is 30% in test [1] (setting [3]); 30% in test [1] (setting [4]); 90% with Avena fatua (AVEFA) (setting [5]); 50% with Avena fatua (AVEFA) (setting [6]); 100% in test [2] (setting [7]); 100% in test [2] (setting [8]). For the same compound, the pest or weed control at 250 g/ha with Lolium perenne (LOLPE) (setting [9]) and in the test with Lolium perenne (LOLPE) (setting [10]) was 80% throughout.

On to `Cc1cc(-c2ncc(Cl)cc2F)cc(C)c1C1C(=O)CC(CC(=O)NCc2ccsc2Br)C1=O` (stereo not shown) [Compound A127], for which the pest or weed control at 250 g/ha in test [1] (setting [3]) came out at 70%; in test [1] (setting [4]), 0%; in the test with Avena fatua (AVEFA) (setting [5]), 70%; with Avena fatua (AVEFA) (setting [6]), 20%; in test [2] (setting [7]), 100%; in test [2] (setting [8]), 60%. Also, the pest or weed control at 250 g/ha came out at 90% in the test with Lolium perenne (LOLPE) (setting [9]) and 60% in the test on Lolium perenne (LOLPE) (setting [10]).

For `Cc1cc(-c2ncc(Cl)cc2F)cc(C)c1C1C(=O)CC(CC(=O)NCc2cnc(Cl)s2)C1=O` (stereo not shown) [Compound A128], the pest or weed control at 250 g/ha in test [1] (setting [3]) amounted to 100%; in test [1] (setting [4]), 80%; in the test on Avena fatua (AVEFA) (setting [5]), 100%; with Avena fatua (AVEFA) (setting [6]) it was 80%; in test [2] (setting [7]) it was 100%; in test [2] (setting [8]), 100%. The pest or weed control at 250 g/ha with Lolium perenne (LOLPE) (setting [9]) came to 100%; in the test on Lolium perenne (LOLPE) (setting [10]), 90%.

Take `Cc1cc(-c2ncc(Cl)cc2F)cc(C)c1C1C(=O)CC(CC(=O)NCc2cncs2)C1=O` (stereo not shown) [Compound A129]: the pest or weed control at 250 g/ha in test [1] (setting [3]) came to 50%; in the test with Avena fatua (AVEFA) (setting [5]), 70%; in test [2] (setting [7]), 90%; in the test with Lolium perenne (LOLPE) (setting [9]) it was 20%.

Turning to `Cc1cc(-c2ncc(Cl)cc2F)cc(C)c1C1C(=O)CC(CC(=O)NCc2ccsc2)C1=O` (stereo not shown) [Compound A130], the pest or weed control at 250 g/ha in test [1] (setting [3]) is 90%; in test [1] (setting [4]), 70%; in the test with Avena fatua (AVEFA) (setting [5]) it was 100%; with Avena fatua (AVEFA) (setting [6]), 90%; in test [2] (setting [7]), 100%; in test [2] (setting [8]) it was 100%. For the same compound, the pest or weed control at 250 g/ha was found to be 100% with Lolium perenne (LOLPE) (setting [9]) and 90% with Lolium perenne (LOLPE) (setting [10]).

As for `Cc1ccsc1CNC(=O)CC1CC(=O)C(c2c(C)cc(-c3ncc(Cl)cc3F)cc2C)C1=O` (stereo not shown) [Compound A131], the pest or weed control at 250 g/ha in test [1] (setting [3]) was 90%; in test [1] (setting [4]) it was 40%; in the test on Avena fatua (AVEFA) (setting [5]), 100%; in the test with Avena fatua (AVEFA) (setting [6]), 50%; in test [2] (setting [7]), 100%; in test [2] (setting [8]), 100%. Further, the values for the pest or weed control at 250 g/ha in the test on Lolium perenne (LOLPE) (setting [9]) and with Lolium perenne (LOLPE) (setting [10]) were 100% and 70%, respectively.
